Assay [1] concerns non-specific. The settings on record: Coste and Grodin 1995, read-out: Target Family IC50; cited from earlier work.
In assay [2] the target is T1, PDE10 (Homo sapiens, UniProt O76083, E580G).
T1 construct: The entire open reading frame of the PDE10 cDNA (clone FB94a) was placed into a yeast ADH vector; made in house; host or cells: Saccharomyces cerevisiae strain BJ2-54 (no endogenous PDE activity); 100,000 x g supernatant of the lysate, not purified
Put plainly: PDE10 inhibition by isozyme-specific PDE inhibitors, cAMP as substrate. Type of assay: biochemical. On the procedure:
The entire open reading frame of the PDE10 cDNA (clone FB94a) was placed into a yeast ADH vector including the alcohol dehydrogenase promoter. The construct was built in two steps.
Following transformation into BJ2-54, a yeast strain lacking endogenous PDE activity, a colony was selected, streaked out on SC-leu plates and a single colony carrying the PDE10 construct was chosen for further characterization. Following overnight growth in SC-leu media the culture was diluted 1:250 in fresh SC-leu and grown overnight at 30° C. until it reached a density of 10^7 cells/ml. The cells were collected by centrifugation, washed once with YEP 3% glycerol media, resuspended in YEP containing 3% glycerol, and grown at 30° C. for another 24 hours. The cells were harvested by centrifugation, washed with water, and frozen at −70° C. until use. Prior to use, an aliquot of the yeast extract was analyzed by SDS PAGE. A protein specific to yeast carrying the PDE10 expression construct that migrated on the SDS PAGE gels with the expected mobility (55.5 kDa) was observed by Coomassie blue staining.
Yeast cells (1×10^10) were thawed with 200 μg/ml each of pepstatin A, leupeptin, and aprotinin 1 mM DTT, and 20 μg/ml calpain inhibitors (I and II). Two hundred μl of glass beads (0.5 mm, acid washed) were added, and the mixture was vortexed for eight cycles of 30 seconds each. Samples were cooled for 4.5 minutes at 4° C. between cycles. After lysis, 0.8 ml lysis buffer was added, the lysate separated from the beads, and the lysate centrifuged for 30 minutes at 100,000×g in a Beckman TL-100 tabletop centrifuge. The supernatant was aliquoted, frozen in dry ice/ethanol, and stored at −70° C.
Kinetic assays were performed on a BIOMEK® 1000 programmable robotic station (Beckman Instruments). […] The highest nucleotide concentration contained 1 to 1.5 million Cerenkov counts of ^32P-labeled substrate per assay. […] The enzyme dilution buffer consisted of 25 mM Tris-HCl pH 8.9, 5 μM ZnSO4 5 mM MgCl2, 0.1 mM DTT, 100 mM NaCl and 0.1 mg/ml BSA (Calbiochem; fatty acid free). Activity at each substrate concentration was derived from a linear fit of successive four-fold enzyme dilutions across the plate.
Assays were performed at 30° C. for 15 minutes. After 12 minutes, 5 μl snake venom from Crotalus atrox (15 mg/ml protein) was added to each reaction. Assays were stopped by addition 200 μl of charcoal suspension (25 mg/ml activated charcoal in 0.1 M monobasic potassium phosphate). The plate was centrifuged at 2600 rpm, and 200 μl of each supernatant was transferred into Microbeta® counting plates and counted on a WALLAC Microbeta® by Cerenkov counting. Data were evaluated with a predesigned Microsoft Excel® Spreadsheet, and the kinetic parameters were fitted to a Michaelis-Menton model using the program Table Curve® from Jandel Scientific.

Assay [3] has as its system PDE4. The settings on record: target family PDE4; Bolger et al. 1993; cited from earlier work.
The target of assay [4] is PDE5 (Homo sapiens, UniProt O76074). To be noted: target family PDE5; Coste and Grodin 1995; cited from earlier work.
The subject of assay [5] is PDE3. The settings on record: target family PDE3; Manganiello et al. 1990; cited from earlier work.
The target in assay [6] is T1, PDE10. Put plainly: Kinetic assays of recombinant PDE10 yeast extract (cAMP and cGMP hydrolysis). Type of assay: biochemical.
In assay [7] the target is PDE2 (Homo sapiens, UniProt O00408). To be noted: target family PDE2; Podzuweit et al. 1995; cited from earlier work.
Chain of PDE2 (O00408 whole entry): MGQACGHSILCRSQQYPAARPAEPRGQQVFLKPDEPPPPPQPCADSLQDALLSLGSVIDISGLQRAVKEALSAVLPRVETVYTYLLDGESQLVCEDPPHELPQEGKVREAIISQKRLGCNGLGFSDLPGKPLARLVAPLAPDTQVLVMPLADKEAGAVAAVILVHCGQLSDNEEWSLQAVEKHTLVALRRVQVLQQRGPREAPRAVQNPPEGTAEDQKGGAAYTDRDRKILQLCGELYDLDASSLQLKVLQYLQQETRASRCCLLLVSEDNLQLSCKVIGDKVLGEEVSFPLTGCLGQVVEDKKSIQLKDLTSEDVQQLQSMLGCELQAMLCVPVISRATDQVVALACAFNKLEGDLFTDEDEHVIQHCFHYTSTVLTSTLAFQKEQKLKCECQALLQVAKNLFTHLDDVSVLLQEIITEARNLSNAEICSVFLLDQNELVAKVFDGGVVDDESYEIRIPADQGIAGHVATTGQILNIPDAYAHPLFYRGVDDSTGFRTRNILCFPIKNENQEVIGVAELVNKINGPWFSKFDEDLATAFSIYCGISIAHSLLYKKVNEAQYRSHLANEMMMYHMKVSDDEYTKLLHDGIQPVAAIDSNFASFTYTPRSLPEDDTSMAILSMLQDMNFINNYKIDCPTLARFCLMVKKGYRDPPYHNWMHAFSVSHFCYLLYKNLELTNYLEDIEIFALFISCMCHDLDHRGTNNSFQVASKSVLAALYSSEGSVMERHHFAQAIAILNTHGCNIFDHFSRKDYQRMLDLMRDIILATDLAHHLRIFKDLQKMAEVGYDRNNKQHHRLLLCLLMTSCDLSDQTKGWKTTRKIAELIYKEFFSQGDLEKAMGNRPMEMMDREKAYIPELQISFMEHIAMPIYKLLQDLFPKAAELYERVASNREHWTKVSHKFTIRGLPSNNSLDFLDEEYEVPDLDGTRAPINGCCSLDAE
The mark [8] stands for this setting: cAMP as substrate, recombinant PDE10 (clone FB94a) yeast extract.

Read-outs that look alike come from different tables or passages of the source.

T1 sequence (O76083 1-466 isoform O76083-3 E453G): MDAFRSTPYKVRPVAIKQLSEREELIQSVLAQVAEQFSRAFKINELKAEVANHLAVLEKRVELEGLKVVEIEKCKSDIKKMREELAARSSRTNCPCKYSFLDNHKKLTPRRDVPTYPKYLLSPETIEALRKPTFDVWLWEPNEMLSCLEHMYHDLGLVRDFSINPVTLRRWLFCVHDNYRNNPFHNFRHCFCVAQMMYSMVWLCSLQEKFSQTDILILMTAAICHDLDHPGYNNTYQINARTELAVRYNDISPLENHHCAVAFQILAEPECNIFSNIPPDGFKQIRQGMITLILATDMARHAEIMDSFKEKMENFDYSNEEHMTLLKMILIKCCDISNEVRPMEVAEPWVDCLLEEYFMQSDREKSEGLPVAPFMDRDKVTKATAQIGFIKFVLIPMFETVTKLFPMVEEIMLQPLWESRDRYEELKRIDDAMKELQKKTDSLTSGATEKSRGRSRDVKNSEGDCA

isobutyl methyl xanthine [IBMX]: the IC50 is 2 to 20 µM in assay [1] and 59 µM in assay [2] (setting [8]).

In the case of `COc1ccc(C2CNC(=O)C2)cc1OC1CCCC1` (stereo not drawn) [Rolipram, rolipram], the half-maximal inhibitory concentration (IC50) was 529 µM in assay [2] and […] in assay [3].

As to `CCCOc1ccc(NS(C)(=O)=O)cc1-c1nc2c(c(C)nn2C)c(=O)[nH]1` [DMPPO], the IC50 is 9 µM in assay [2] (setting [8]) and 0.003 µM in assay [4].

In the case of `CN(C(=O)CCCOc1ccc2[nH]c(=O)ccc2c1)C1CCCCC1` [Cilostamide], the results for the IC50 in assay [2] and in assay [5] were 100 µM and 0.04 to 0.9 µM, respectively.

Turning to `Nc1nc2c(ncn2[C@@H]2O[C@@H]3COP(=O)(O)O[C@H]3[C@H]2O)c(=O)[nH]1` [cGMP], in assay [6] (PDE10 yeast extract), the “hydrolytic activity in the extract” value is listed as 0.035 (±0.01) μmol/min/mg. In addition, in assay [6] (substrate of PDE10, 30° C., Michaelis-Menton fit), the Michaelis constant (Km) was determined as 5 nM.

On to `CCCCCCC(C(C)O)n1cnc2c(N)ncnc21` (stereo not drawn) [EHNA, erythro-9-(2-hydroxy-3-nonyl)adenine], for which the IC50 was 477 µM in assay [2] and 0.8 µM in assay [7].

Source of the values: patent US6734003B2, “Phosphodiesterase 10” (Icos Corporation, priority 1998, dated 2004).
